Test results: patent EP4711361A1, “NITROGEN-CONTAINING HETEROCYCLIC COMPOUND AND USE THEREOF” (Jiangsu Deyuan Pharmaceutical Co.,Ltd., priority 2023, dated 2024)

What was measured:
human CYP11B1 = biological target: T1, human CYP11B1 (Homo sapiens, UniProt P15538); assay: In vitro activity assay of monoclonal cells overexpressing human CYP11B1; type: cell-based; conditions: G402 cells overexpressing human CYP11B1; 1 µM 11-deoxycortisol, 16 hours; cortisol by LC-MS/MS
T1 construct: expressed in transfected cells; host or cells: human renal leiomyoma G402 cells (monoclonal)
T1 sequence (P15538 25-503): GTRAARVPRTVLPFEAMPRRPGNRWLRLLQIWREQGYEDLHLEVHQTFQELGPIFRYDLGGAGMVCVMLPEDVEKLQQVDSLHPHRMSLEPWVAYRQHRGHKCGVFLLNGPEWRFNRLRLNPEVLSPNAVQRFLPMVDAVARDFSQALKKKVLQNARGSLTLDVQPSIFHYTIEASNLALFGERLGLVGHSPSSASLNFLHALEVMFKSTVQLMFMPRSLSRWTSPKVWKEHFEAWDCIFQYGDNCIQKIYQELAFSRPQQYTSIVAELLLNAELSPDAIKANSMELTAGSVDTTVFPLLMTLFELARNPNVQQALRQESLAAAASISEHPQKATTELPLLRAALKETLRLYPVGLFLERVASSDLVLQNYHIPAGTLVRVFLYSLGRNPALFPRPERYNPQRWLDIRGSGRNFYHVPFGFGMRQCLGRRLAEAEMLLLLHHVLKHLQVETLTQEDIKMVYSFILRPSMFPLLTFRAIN
Method: The human renal leiomyoma G402 cell line overexpressing human CYP11B1 was selected to serve as a compound selectivity screening system.
Day 1: Cells were digested, and human renal leiomyoma G402 cells overexpressing CYP11B1 were resuspended to 1×10^5 cells/mL, with 100 µL seeded into a 96-well plate.
(§1) Day 3: The cell supernatant was collected and added to 200 µL of a methanol solution containing internal standards (internal standards: 35 ng/mL ketoprofen or 7.5 ng/mL carbamazepine or 5 ng/mL diphenhydramine or 10 ng/mL tolbutamide). The mixture was vortexed and centrifuged (4000×g, 4°C, 5 minutes). Then, 100 µL of the supernatant was taken and mixed with 100 µL of pure water.
Ratio = Cortisol peak area/Internal standard peak area [formula] Control activity% = (Ratiotestcompound/RatioDMSO) × 100% [formula]
(§2) "Ratio test compound" represents the Ratio values at different concentrations of the test compound.
(§3) "Ratio DMSO" represents the Ratio value without the addition of the test compound. • X = Log (compound concentration) • Y = Control activity%
The IC50 of the test compound was determined by fitting to a nonlinear regression equation using XLfit 5.5.0. Table 4: Results for in vitro activity assay of monoclonal cells overexpressing human CYP11B1

in vitro [1] = conditions: human, microsomes
in vitro [2] = conditions: rat, plasma
in vivo = conditions: cynomolgus monkey, po
in vitro [3] = conditions: cynomolgus monkey, plasma
human CYP11B2 = biological target: T2, human CYP11B2 (Homo sapiens, UniProt P19099); assay: In vitro activity assay of monoclonal cells overexpressing human CYP11B2; type: cell-based; conditions: G402 cells overexpressing human CYP11B2; 1 µM 11-deoxycorticosterone, 16 hours; aldosterone by LC-MS/MS
T2 construct: expressed in transfected cells; host or cells: human renal leiomyoma G402 cells (monoclonal)
T2 sequence (P19099 25-503): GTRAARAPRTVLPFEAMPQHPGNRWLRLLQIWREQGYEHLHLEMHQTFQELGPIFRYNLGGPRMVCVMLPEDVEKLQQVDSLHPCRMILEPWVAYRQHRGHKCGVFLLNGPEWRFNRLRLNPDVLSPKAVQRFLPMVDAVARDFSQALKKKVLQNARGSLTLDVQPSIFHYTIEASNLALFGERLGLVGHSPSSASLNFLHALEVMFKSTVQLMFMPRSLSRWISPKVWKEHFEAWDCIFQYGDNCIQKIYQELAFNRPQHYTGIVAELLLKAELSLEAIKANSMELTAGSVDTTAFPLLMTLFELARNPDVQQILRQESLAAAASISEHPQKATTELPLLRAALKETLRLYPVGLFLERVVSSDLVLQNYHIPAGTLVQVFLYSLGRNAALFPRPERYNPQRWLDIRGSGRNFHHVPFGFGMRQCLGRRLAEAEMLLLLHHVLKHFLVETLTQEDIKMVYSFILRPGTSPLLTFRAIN
Method: The human renal leiomyoma G402 cell line overexpressing human CYP11B2 was selected to serve as a compound activity screening system. Table 1: Cell and reagent information
2) Compound details: The test compound was prepared as a 10 µM working concentration using DMSO. 3) Experimental procedure
Day 1: Cells were digested, and human renal leiomyoma G402 cells overexpressing human CYP11B2 were resuspended to 1×10^5 cells/mL, with 100 µL seeded into a 96-well plate.
as §1
Ratio = Aldosterone peak area/Internal standard peak area [formula] Control activity% = (Ratiotestcompound/RatioDMSO) × 100% [formula]
as §2, §3
The IC50 of the test compound was determined by fitting to a nonlinear regression equation using XLfit 5.5.0. Table 3: Results for in vitro activity assay of monoclonal cells overexpressing human CYP11B2

in vitro [4] = conditions: human, plasma
[5] = Permeability test (MDR1-MDCKII monolayer, bidirectional transport); type: in vitro ADME; conditions: dog; for efflux ratio at 2.5 h, 2 µM: MDCK-MDR1, pH 7.4, ER = Papp (BA)/ Papp (AB); for Papp A→B at 2.5 h, 2 µM: MDCK-MDR1, pH 7.4, pH 7.40, 2.5 hours, A to B, read-out: Apparent permeability coefficient (Papp (AB), 10^-6 cm/s)
Method: Experimental objective: The permeability and efflux ratio of the compound of the present disclosure were determined using the MDR1-MDCKII monolayer cell model to assess its membrane permeability and potential for P-gp-mediated efflux transport.
Experimental protocol: MDR1-MDCKII cells (obtained from the Netherlands Cancer Institute) were seeded in 96-well plates (obtained from Corning) at a cell density of 3.33 × 10^5 cells/mL and cultured for 4 to 7 days to form confluent cell monolayers. Hank's balanced salt solution containing 10 mM HEPES (pH 7.40) was used as the transport buffer. The test compound was evaluated for bidirectional transport at a concentration of 2 µM, with the DMSO concentration in the incubation system maintained below 1%. After adding the samples, the cell plate was incubated at 37±1°C, 5% CO2, and saturated humidity for 2.5 hours. All samples were quantitatively analyzed using the LC-MS/MS method. The apparent permeability coefficient (Papp, cm/s) and efflux ratio (ER) were calculated using the following formula. Apparent permeability coefficient (Papp, cm/s) was calculated using the following formula: Papp = (dCr/dt) x Vr / (A x C0). Herein, dCr/dt represents the cumulative concentration of the compound at the receiving end per unit time (µM/s); Vr is the volume of the solution at the receiving end (with solution volumes at the apical and basolateral ends being 0.075 mL and 0.250 mL, respectively); A is the relative surface area of the cell monolayer (0.143 cm^2); C0 is the initial concentration of the test substance at the dosing end (µM) or the peak area ratio of the reference substance. The efflux ratio was calculated using the following formula: ER = Papp (BA)/ Papp (AB). Table 7: Permeability test results of compounds

Row | SMILES | IC50 (human CYP11B1) | CLint scaled at 1 µM (in vitro [1]) | fraction unbound at 4 h, 2 µM (in vitro [2]) | AUC(0-t) at 24 h (in vivo; 1 mg/kg) | Cmax (in vivo; 1 mg/kg) | half-life (in vivo; 1 mg/kg) | fraction unbound at 4 h, 2 µM (in vitro [3]) | IC50 (human CYP11B2) | fraction unbound at 4 h, 2 µM (in vitro [4]) | efflux ratio at 2.5 h, 2 µM [5] | Papp A→B at 2.5 h, 2 µM [5] | AUC(0-t) at 24 h (in vivo; 3 mg/kg) | Cmax (in vivo; 3 mg/kg) | bioavailability (in vivo; 3 mg/kg) | half-life (in vivo; 3 mg/kg)
1 | CCC(=O)NC1CCCc2c(-c3cc(F)c4c(ccc(=O)n4C)c3)cncc21 (single isomer, unassigned) [Compound 018] | 3.81 µM | < 0.516 L/h/kg | 0.08 | 7.59 µM·h | 1.31 µM | 5.35 h | 0.205 | 0.0207 µM | 0.191 | 1.32 | 246 nm/s |  |  |  | 
2 | CCC(=O)NC1CCCc2c(-c3cc4ccc(=O)n(C)c4cc3F)cncc21 (single isomer, unassigned) [Compound 019] | 1.68 µM | < 0.516 L/h/kg | 0.129 |  |  |  | 0.248 | 0.0173 µM | 0.238 | 1.55 | 215 nm/s | 23.9 µM·h | 3.79 µM | 113% | 4.65 h
3 | Cc1noc(C)c1C(=O)NC1CCCc2c(-c3cc4ccc(=O)n(C)c4cc3F)cncc21 (single isomer, unassigned) [Compound 020] | 1.13 µM | 0.774 L/h/kg | 0.083 |  |  |  | 0.097 | 0.0255 µM | 0.144 | 2.47 | 140 nm/s |  |  |  | 
4 | CCC(=O)NC1CCOc2c(-c3ccc4c(ccc(=O)n4C)c3)cncc21 (single isomer, unassigned) [Compound 044] | 19.5 µM |  | 0.024 |  |  |  | 0.336 | 0.0329 µM | 0.295 | 2.46 | 110 nm/s |  |  |  | 
